Where two headings read alike, the source gives them in different places.
Assays:
[1] = molecular target: T1, TcMDO (Trypanosoma cruzi MacroD-like protein) (Trypanosoma cruzi, UniProt Q4DQ03); assay: isothermal titration calorimetry; assay type: binding
T1 construct: gene Tc00.1047053509179.20; full-length, codon-optimized synthetic cDNA, pNH-TrxT vector, E. coli BL21(DE3), fusion tags cut with TEV protease; crystal structure comprises residues 13-257
T1 sequence (Q4DQ03 1-267): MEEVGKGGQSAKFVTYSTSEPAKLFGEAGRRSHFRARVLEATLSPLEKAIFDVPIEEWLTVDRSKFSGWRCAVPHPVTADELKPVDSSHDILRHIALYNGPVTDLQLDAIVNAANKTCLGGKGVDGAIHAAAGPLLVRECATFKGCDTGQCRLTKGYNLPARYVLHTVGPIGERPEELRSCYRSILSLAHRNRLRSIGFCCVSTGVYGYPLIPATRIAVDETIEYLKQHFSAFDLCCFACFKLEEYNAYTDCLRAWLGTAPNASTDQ

[2] = molecular target: T2, TbMDO (Trypanosoma brucei MacroD-like protein) (Trypanosoma brucei, UniProt C9ZP98); assay: isothermal titration calorimetry; assay type: binding
T2 construct: gene TbgDal_V3640; full-length, codon-optimized synthetic cDNA, pNH-TrxT vector, E. coli BL21(DE3), fusion tags cut with TEV protease; crystal structures comprise residues 11-261
T2 sequence (C9ZP98 1-265): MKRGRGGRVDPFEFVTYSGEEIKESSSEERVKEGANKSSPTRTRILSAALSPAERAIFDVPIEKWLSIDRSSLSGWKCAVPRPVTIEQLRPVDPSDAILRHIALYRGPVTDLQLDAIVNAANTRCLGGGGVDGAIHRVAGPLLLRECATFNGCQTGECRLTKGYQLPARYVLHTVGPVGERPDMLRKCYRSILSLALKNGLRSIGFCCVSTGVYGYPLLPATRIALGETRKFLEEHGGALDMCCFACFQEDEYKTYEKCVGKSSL

[3] = molecular target: T1, TcMDO (Trypanosoma cruzi MacroD-like protein); assay: ESI-TOF mass spectrometry of hydrolysis products; assay type: biochemical; conditions: 0.5 mM 2′/3′-O-acetyl-ADP-ribose, 50 μM protein, 22 °C, 4 h; isomer mixture
[4] = molecular target: T2, TbMDO (Trypanosoma brucei MacroD-like protein); assay: ESI-TOF mass spectrometry of hydrolysis products; assay type: biochemical; conditions: 0.5 mM 2′/3′-O-acetyl-ADP-ribose, 50 μM protein, 22 °C, 4 h; isomer mixture
[5] = pH 7.5, 50 mM HEPES, 250 mM NaCl, 0.5 mM TCEP, 25 °C, three titrations, same data as the Ka row, read-out: affinities

Question: What does the source list for `Nc1ncnc2c1ncn2[C@@H]1O[C@H](COP(=O)(O)OP(=O)(O)OC[C@H]2OC(O)[C@H](O)[C@@H]2O)[C@@H](O)[C@H]1O` (some centres unmarked) [ADP-ribose]?
Answer: Kd [1, 5]: 0.2 µM; Kd [2, 5]: 1.3 µM

Question: With `CC(=O)O[C@H]1C(O)O[C@H](COP(=O)(O)OP(=O)(O)OC[C@H]2O[C@@H](n3cnc4c(N)ncnc43)[C@H](O)[C@@H]2O)[C@H]1O` (some centres unmarked) [O-acetyl-ADP-ribose] as the compound, how does the “ESI-TOF mass spectrometry of hydrolysis products” value [3] read?
Answer: The value was “Incubation of O-acetyl-ADP-ribose with both proteins resulted in the decrease of the mass”.

Question: And the “ESI-TOF mass spectrometry of hydrolysis products” value [4]?
Answer: Its value is “Incubation of O-acetyl-ADP-ribose with both proteins resulted in the decrease of the mass”.

Question: `Nc1ncnc2c1ncn2[C@@H]1O[C@H](COP(=O)(O)OP(=O)(O)O)[C@@H](O)[C@H]1O` [ADP] was tested. Which Kd ([1]; read-out: K (converted)) did it give?
Answer: The Kd was 820 µM.

Question: And the Kd ([1]; read-out: KD)?
Answer: Its Kd is 800 µM.

Question: And the Kd ([2]; read-out: K (converted))?
Answer: Its Kd is 1850 µM.

Question: What about the Kd ([2]; read-out: KD) of the same compound?
Answer: Its Kd is 1900 µM.

Reference: PMC4827093, “Proximal ADP-ribose Hydrolysis in Trypanosomatids is Catalyzed by a Macrodomain” (Scientific Reports, 2016)
